Drawing on publication PMC9218960 (ACS infectious diseases, 2020), this text covers IC50 for three compounds.

Common to all, as to test: [3H]uridine uptake inhibition by purines in PfENT1-SNP-expressing yeast
Holding throughout (type): cell-based

One experiment deals with T1, PfENT1 I418M (Plasmodium falciparum, UniProt Q8IDM6, I418M).
T1 sequence (Q8IDM6 1-422 I418M): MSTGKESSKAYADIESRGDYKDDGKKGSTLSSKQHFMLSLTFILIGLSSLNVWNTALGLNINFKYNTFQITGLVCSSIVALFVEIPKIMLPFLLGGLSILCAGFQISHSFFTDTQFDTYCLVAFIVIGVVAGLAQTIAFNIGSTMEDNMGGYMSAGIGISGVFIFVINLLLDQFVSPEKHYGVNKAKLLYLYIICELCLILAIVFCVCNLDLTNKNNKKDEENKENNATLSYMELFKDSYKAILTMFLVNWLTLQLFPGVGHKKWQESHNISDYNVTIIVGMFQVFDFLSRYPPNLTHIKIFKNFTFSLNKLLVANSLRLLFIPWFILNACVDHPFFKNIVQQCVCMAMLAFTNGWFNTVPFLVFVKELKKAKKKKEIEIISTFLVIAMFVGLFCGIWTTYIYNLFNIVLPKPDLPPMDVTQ

For the next experiment, the target named is T2, PfENT1 F92I (Plasmodium falciparum, UniProt Q8IDM6, F92I).
T2 sequence (Q8IDM6 1-422 F92I): T1 sequence (Q8IDM6 1-422 I418M) with F92I, M418I

Another experiment has as its target T3, PfENT1 Q284E (Plasmodium falciparum, UniProt Q8IDM6, Q284E).
T3 sequence (Q8IDM6 1-422 Q284E): T1 sequence (Q8IDM6 1-422 I418M) with Q284E, M418I

Another experiment addresses T4, PfENT1 V345I (Plasmodium falciparum, UniProt Q8IDM6, V345I).
T4 sequence (Q8IDM6 1-422 V345I): T1 sequence (Q8IDM6 1-422 I418M) with V345I, M418I

Another experiment has as its target T5, PfENT1 S317T (Plasmodium falciparum, UniProt Q8IDM6, S317T).
T5 sequence (Q8IDM6 1-422 S317T): T1 sequence (Q8IDM6 1-422 I418M) with S317T, M418I

A further experiment deals with T6, PfENT1 L197F (Plasmodium falciparum, UniProt Q8IDM6, L197F).
T6 sequence (Q8IDM6 1-422 L197F): T1 sequence (Q8IDM6 1-422 I418M) with L197F, M418I

Changes are numbered by the printed parent chain.

As a reminder, the IC50 is the concentration needed to halve the response being measured. Read a high IC50 as weaker potency. Take `Nc1ncnc2nc[nH]c12` [Adenine, adenine]: the IC50 against PfENT1 I418M came out at 221 ± 36 µM; on PfENT1 F92I it was 176 ± 35 µM; on PfENT1 Q284E, 1070 ± 128 µM; against PfENT1 V345I, 225 ± 17 µM; against PfENT1 S317T it was 205 ± 49 µM; against PfENT1 L197F, 46 ± 5 µM.
In the case of `O=c1[nH]cnc2nc[nH]c12` [Hypoxanthine, hypoxanthine], the IC50 is 145 ± 7 µM at PfENT1 I418M; 207 ± 34 µM against PfENT1 F92I; 566 ± 133 µM against PfENT1 Q284E; 161 ± 57 µM at PfENT1 V345I; 175 ± 31 µM against PfENT1 S317T; 282 ± 8 µM at PfENT1 L197F.
With `OC[C@H]1O[C@@H](n2cnc3c(O)ncnc32)[C@H](O)[C@@H]1O` [Inosine, inosine], the IC50 at PfENT1 I418M is 12 ± 2 µM; on PfENT1 F92I, 51 ± 14 µM; against PfENT1 Q284E, 18 ± 6 µM; against PfENT1 V345I, 4 ± 0.2 µM; against PfENT1 S317T it was 28 ± 2 µM; at PfENT1 L197F it was 37 ± 12 µM.
